Source: patent publication US20180209979A1, “METHOD FOR INDIVIDUALIZED CANCER THERAPY” (INSERM (INSTITUT NATIONAL DE LA SANTE ET DE LA RECHERCHE), priority 2015, published 2018)
pIC50: −log10 of the molar value.

Tests used:
CAL 33 cells = assay: qPCR analysis of pro-angiogenic/pro-inflammatory genes induced by TRF2 silencing; format: cell-based, human; settings: shC cells = 100
Source text: (§1) To further analyze the effect of TRF2 knock-down on cell proliferation, invasion capabilities and treatment response, CAL 33 cells expressing shRNA against TRF2 and dominant negative forms of TRF2 were generated (Biroccio A et al. Nat Cell Biol 2013; 15(7):818-28). CAL 33 cells were infected using lentiviral vector (pLKOpuro-3×LacO, Sigma). The plasmids contained scramble (shC; SEQ ID No1) or TRF2-specific shRNA, sh1 (SEQ ID No2) or sh2 (SEQ ID No3).

TRF2 = TRF2 knock-down tested by immunoblotting in CAL33 cells; format: cell-based, human; settings: FIG. 2A
Source text: as §1
The following antibodies were used for Western blotting: anti-phospho ERK 1,2 (Sigma St Louis, Mo.), anti-phospho Akt, anti-Akt, anti-EGFR (Cell Signaling, Cambridge, UK,), anti-ERKs (Santa Cruz Biotechnology, Santa Cruz, Calif.)), anti-TRF2 (Novus bio, Cambridge, UK) and alpha-tubulin (Fischer scientific, Illkirch France).

CAL27 cells = assay: Cumulative population doublings of CAL27 cells; format: cell-based, human; settings: FIG. 3B
Description: (§2) For cumulative population doublings assays (Nekanti U et al. Int J Biol Sci 2010; 6(5):499-512.) 10^5 cells were grown in 7.5% FCS-DMEM medium for 28 days at 37° C. and 5% CO2 in Petri boxes 100 mm diameter. Cells were counted each day (Coulter, Beckman) and media were changed every five days. Cells at each passage was calculated as a ratio of total number of cells harvested to total number of cells seeded multiplied by the total number of cells from the previous passage. Population doublings were calculated using the formula: […]
(§3) in which NI is the inoculum cell number and NH the cell harvest number.
(§4) To yield the cumulated doubling level, the population doubling for each passage was calculated and then added to the population doubling levels of the previous passages. The population doubling time was obtained by the formula: […]
(§5) In which NI is the inoculum cell number; NH is the cell harvest number and t is the time of the culture (in hours).

CAL33 cells [1] = assay: Cumulative population doublings of CAL33 cells; format: cell-based, human; settings: FIG. 2B
Description: as §2, §3, §4, §5

CAL33LUC cells = assay: Tumor xenograft formation, size evaluation and tumor section analysis; format: in vivo; settings: 10^6 CAL33LUC cells subcutaneously in nude mice, versus shC, FIG. 5
Description: 10^6 cells were injected subcutaneously into the flanks of 5-week-old nude (nu/nu) female mice (Janvier). Bioluminescence was quantified using the In Vivo Imaging System (Perkin Elmer) according to the manufacturer's instructions. Tumor volume [(v ¼ L l^2 0.52] was determined in parallel using a caliper. There was a linear relationship between values for bioluminescence and the tumor volume.
Immuno-histochemical staining for TRF2 was carried out in 3 μm tissue sections from formalin-fixed, paraffin-embedded tissue blocks. Histopathological analysis was conducted in 3 μm tissue sections colored with Masson's trichrome (blue collagen) and scanned with Leica Slide Path. For each tumor, pictures were taken and the following parameters were analyzed using Leica Slide Path Gateway software: total area of the section, area of necrosis, presence of white blood cells inflammatory infiltrate, presence of red blood cells extravasation, thickness of collagen around vessels, number of vessels.

CAL33 cells [2] = assay: Clonogenicity assay (clonal growth) of shC, sh1 and sh2 CAL33 cells; format: cell-based, human; settings: for inhibition at 0.1 µM: Homo sapiens, CAL-33, erlotinib 0.1 μmol/L, FIG. 7
Description: The mean and standard deviation were calculated for three independent experiments. Statistical analysis was carried out using a t test. […] Dishes were then stained with Giemsa (Fluka) and plates were scanned in order to analyze the results by computer with ImageJ software (NIH, USA).

CAL33 cells [3] = settings: read-out: IC50 of erlotinib, Quesnelle K M et al. 2012; cited from earlier work
head and neck tumors = settings: Agulnik M et al. 2007; cited from earlier work

sh2: TRF2-specific shRNA encoded by DNA of SEQ ID No3, expressed from lentiviral vector (DNA GCGCATGACAATAAGCAGATTCTCGAGAATCTGCTTATTGTCATGCGC)
percentage expression of 36B4 (CAL 33 cells): 100% | percentage expression of CXCL1 (CAL 33 cells): 370(***) % | percentage expression of CXCL7 (CAL 33 cells): 120(*) % | percentage expression of CXCL8 (CAL 33 cells): 1100(***) % | percentage expression of CXCL9 (CAL 33 cells): 600(***) % | percentage expression of GAPDH (CAL 33 cells): 100% | percentage expression of IL6 (CAL 33 cells): 1000(***) % | percentage expression of PDGF-BB (CAL 33 cells): 190(***) % | percentage expression of RANTES (CAL 33 cells): 190(***) % | percentage expression of TRF2 (CAL 33 cells): 40% | percentage expression of m-RPLP0 (CAL 33 cells): 100% | efficacy in knocking-down TRF2 (TRF2): most efficient | proliferation (cumulative population doublings) (CAL27 cells): does not impair CAL27 proliferation | proliferation (cumulative population doublings) (CAL33 cells [1]): does not impair CAL33 proliferation | tumor growth / tumor size (bioluminescence) (CAL33LUC cells): decreases tumor growth | tumor growth / tumor size (bioluminescence) (CAL33LUC cells; listed as shTRF2 #2): smallest tumors

C#Cc1cccc(Nc2ncnc3cc(OCCOC)c(OCCOC)cc23)c1 [erlotinib]
inhibition at 0.1 µM (CAL33 cells [2]; sh1 CAL33 cells (TRF2 knock-down)): 40% | inhibition at 0.1 µM (CAL33 cells [2]; sh2 CAL33 cells (TRF2 knock-down)): 50% | pIC50 (CAL33 cells [3]): 5.27 | patients with an objective response to the treatment (head and neck tumors): 50%

O=c1[nH]cc(F)c(=O)[nH]1 [5 FU]
influence of TRF2 knock-down on the efficacy of the drug (clonal growth) (CAL33 cells [2]; shC, sh1 and sh2 CAL33 cells, FIG. 6B): no influence

sh1: TRF2-specific shRNA encoded by DNA of SEQ ID No2, expressed from lentiviral vector (DNA GCCAGAATATCATTAGCGTTTCTCGAGAAACGCTAATGATATTCTGGC)
percentage expression of 36B4 (CAL 33 cells): 100% | percentage expression of CXCL1 (CAL 33 cells): 380(***) % | percentage expression of CXCL7 (CAL 33 cells): 110% | percentage expression of CXCL8 (CAL 33 cells): 350(***) % | percentage expression of CXCL9 (CAL 33 cells): 210(**) % | percentage expression of GAPDH (CAL 33 cells): 100% | percentage expression of IL6 (CAL 33 cells): 400(***) % | percentage expression of PDGF-BB (CAL 33 cells): 150(*) % | percentage expression of RANTES (CAL 33 cells): 270(***) % | percentage expression of TRF2 (CAL 33 cells): 70% | percentage expression of m-RPLP0 (CAL 33 cells): 100% | proliferation (cumulative population doublings) (CAL27 cells): does not impair CAL27 proliferation | proliferation (cumulative population doublings) (CAL33 cells [1]): does not impair CAL33 proliferation | tumor growth / tumor size (bioluminescence) (CAL33LUC cells): decreases tumor growth
